The NIST ThermoML archive (doi:10.1021/je100170v)
± gives the expanded uncertainty stated by the source.

Legend:
[1] = xn = mol fraction of the nth substance listed; settings: 101 kPa, Liquid; for speed of sound: Sing-around technique in a fixed-path interferometer
[2] = Liquid; for mass density / speed of sound: 101 kPa; for speed of sound: Sing-around technique in a fixed-path interferometer; for viscosity: 101.3 kPa

CC(=O)c1ccccc1 [acetophenone] + CCCCCCCCO
[1]
Settings	mass density, 298.15 K [kg/m3]	mass density, 308.15 K [kg/m3]	mass density, 318.15 K [kg/m3]	speed of sound, 298.15 K [m/s]	viscosity, 298.15 K [mPa·s]	viscosity, 308.15 K [mPa·s]	viscosity, 318.15 K [mPa·s]
x2 = 0	1023.1 ± 0.6	1014.9 ± 0.6	1007.2 ± 0.5	1296.2 ± 1.3	1.653 ± 0.051	1.411 ± 0.044	1.115 ± 0.036
x2 = 0.093	997.7 ± 0.5	989.7 ± 0.5	982.4 ± 0.6	1278.5 ± 1.3	1.713 ± 0.052	1.528 ± 0.047	1.208 ± 0.039
x2 = 0.1874	973.7 ± 0.6	966.1 ± 0.6	958.9 ± 0.6	1266.5 ± 1.3	1.831 ± 0.056	1.669 ± 0.051	1.327 ± 0.042
x2 = 0.2834	951.2 ± 0.6	943.6 ± 0.6	936.6 ± 0.6	1263.3 ± 1.3	1.994 ± 0.06	1.785 ± 0.055	1.424 ± 0.045
x2 = 0.3808	929.7 ± 0.6	922.2 ± 0.6	915.5 ± 0.6	1264.7 ± 1.3	2.205 ± 0.066	1.949 ± 0.059	1.535 ± 0.048
x2 = 0.4799	909.3 ± 0.7	902 ± 0.7	895.3 ± 0.7	1271.8 ± 1.3	2.519 ± 0.075	2.167 ± 0.065	1.671 ± 0.052
x2 = 0.5805	889.8 ± 0.7	882.5 ± 0.7	876 ± 0.7	1281.8 ± 1.3	2.997 ± 0.089	2.4 ± 0.072	1.807 ± 0.056
x2 = 0.6828	871.3 ± 0.7	864.1 ± 0.7	857.7 ± 0.7	1295.4 ± 1.3	3.65 ± 0.11	2.799 ± 0.084	2.095 ± 0.064
x2 = 0.7868	853.8 ± 0.7	846.6 ± 0.7	840.2 ± 0.8	1311.1 ± 1.3	4.475 ± 0.13	3.249 ± 0.097	2.432 ± 0.074
x2 = 0.8925	837.1 ± 0.8	829.9 ± 0.8	823.6 ± 0.8	1327.8 ± 1.3	5.625 ± 0.16	3.931 ± 0.12	2.926 ± 0.088

CCCCCCCCO [octan-1-ol]
[2]
Settings	mass density [kg/m3]	speed of sound [m/s]	viscosity [mPa·s]
298.15 K	821.5 ± 0.8	1349.2 ± 1.3	7.365 ± 0.2
308.15 K	814 ± 0.8	–	5.251 ± 0.15
318.15 K	807.7 ± 0.8	–	3.865 ± 0.12

COCCO [2-methoxyethan-1-ol]
[2]
Settings	mass density [kg/m3]	speed of sound [m/s]	viscosity [mPa·s]
298.15 K	959.5 ± 0.6	1339.3 ± 1.3	1.543 ± 0.048
308.15 K	952.1 ± 0.6	–	1.256 ± 0.04
318.15 K	945.8 ± 0.6	–	1.047 ± 0.034

CC(=O)N(C)C [N,N-dimethylethanamide] + CCCCCCCCO
[1]
Settings	mass density, 298.15 K [kg/m3]	mass density, 308.15 K [kg/m3]	mass density, 318.15 K [kg/m3]	speed of sound, 298.15 K [m/s]	viscosity, 298.15 K [mPa·s]	viscosity, 308.15 K [mPa·s]	viscosity, 318.15 K [mPa·s]
x2 = 0	937.2 ± 0.6	925.8 ± 0.6	917.1 ± 0.6	1458.2 ± 1.4	0.937 ± 0.031	0.841 ± 0.028	0.763 ± 0.026
x2 = 0.0692	923.5 ± 0.6	912.7 ± 0.6	904.4 ± 0.7	1433.5 ± 1.4	1.072 ± 0.034	0.942 ± 0.031	0.851 ± 0.028
x2 = 0.1433	910.4 ± 0.7	900.2 ± 0.7	892.2 ± 0.7	1412.4 ± 1.4	1.246 ± 0.039	1.063 ± 0.034	0.947 ± 0.031
x2 = 0.2228	897.7 ± 0.7	888.1 ± 0.7	880.4 ± 0.7	1390.3 ± 1.3	1.418 ± 0.044	1.194 ± 0.038	1.046 ± 0.034
x2 = 0.3084	885.5 ± 0.7	876.3 ± 0.7	868.9 ± 0.7	1372.5 ± 1.3	1.702 ± 0.052	1.376 ± 0.043	1.185 ± 0.038
x2 = 0.4008	873.7 ± 0.7	864.8 ± 0.7	857.8 ± 0.7	1360 ± 1.3	2.023 ± 0.061	1.614 ± 0.05	1.361 ± 0.043
x2 = 0.5009	862.3 ± 0.7	853.9 ± 0.7	847 ± 0.7	1353.4 ± 1.3	2.399 ± 0.072	1.893 ± 0.058	1.585 ± 0.049
x2 = 0.6095	851.4 ± 0.7	843.4 ± 0.8	836.7 ± 0.8	1348.5 ± 1.3	3.111 ± 0.092	2.406 ± 0.072	1.935 ± 0.059
x2 = 0.728	840.9 ± 0.8	833.1 ± 0.8	826.6 ± 0.8	1346.4 ± 1.3	4.009 ± 0.12	2.988 ± 0.089	2.35 ± 0.071
x2 = 0.8576	830.9 ± 0.8	823.4 ± 0.8	816.9 ± 0.8	1348 ± 1.3	5.318 ± 0.15	3.849 ± 0.11	2.965 ± 0.088
